Source: patent US7569572B2, “Pyrazolo[4,3-D]pyrimidines” (Pfizer Inc, priority 2004, dated 2009)
Where a name gives a salt, the structure may show the parent alone.

target: T1, human platelet PDE5 (Homo sapiens, UniProt O76074); experiment: Method B: PDE-5 Inhibition Scintillation Proximity Assay (SPA) - Human Platelet (modified protocol of Method A); type: biochemical; settings: cGMP substrate 50 nM, PDE5 isolated from human platelets
T1 construct: utilizes PDE5 isolated from human platelets; from tissue; host or cells: human platelets
Description: Method B: PDE-5 Inhibition Scintillation Proximity Assay (SPA)—Human Platelet
This method is a modified protocol of Method A.
The assay measures the inhibition of human platelet PDE5 enzyme activity by a test compound in an in vitro assay that utilizes PDE5 isolated from human platelets. PDE5 catalyzes the hydrolysis of [^3H]cGMP to the 5′ nucleotide [^3H]GMP. [^3H]GMP binds to yttrium silicate SPA beads and is detected by scintillation counting. The inhibition of enzyme activity is calculated relative to total PDE5 activity of uninhibited controls.
PDE5 IC50 Assay: 96-Well Microtiter Plate Format
Buffer A: 20 mM Tris-HCl, 5 mM MgCl2, pH 7.4
Buffer B: 2 mg/ml BSA in Buffer A (enzyme buffer)
cGMP substrate: Final concentration of 50 nM in assay
The amount of ^3H-labeled substrate added depends upon the specific activity of [^3H]cGMP, and it is diluted in Buffer A.
PDE enzyme: Prepared in Buffer B. The dilution factor is determined by enzyme activity.
SPA beads: 4 mg/ml suspension prepared in dH2O.
Stocks of standard and test compounds are prepared at 2 mM in 100% DMSO. Compounds are serially diluted in separate dilution plates using an 8-point ⅕ log dilution format such that the starting concentration in the assay is 2 μM for an initial IC50 screen. 27 μl of Buffer A are added to the wells of the assay plates. From the dilution plates, 3 μl of diluted compounds are delivered in duplicate or 3 μl of 100% DMSO (for positive and negative controls) are added. 30 μl of enzyme are added. For the negative control wells, Buffer B is substituted in place of the enzyme. 30 μl of labeled substrate are added to all wells.
After incubating for 60 minutes at room temperature, the reaction is stopped with the addition of 30 μl of the yttrium silicate beads. These beads are dense and require constant agitation while being added to the plate. The plates are sealed and shaken on a plate shaker for fifteen minutes to allow the beads to bind the GMP product.
After allowing the beads to settle for 30 minutes, plates are read on a NXT TopCount and data is analyzed in the Bioassay Solver application. Percent inhibition values are calculated using the means of the 0% and 100% controls on each plate. The estimates of the 4-parameters of the logistic, sigmoid dose-response model are then calculated using the well-level percent inhibition values for each compound. These estimates are used to calculate the concentration that corresponds to 50% inhibition.

Row | IC50 [nM] | SMILES
1 | 1.8 | FC(F)(F)COCCn1nc(CN2CCNCC2)c2nc(N3CCNCC3)nc(Nc3ccncn3)c21 [Example 41, 5-Piperazin-1-yl-3-(piperazin-1-ylmethyl)-N-pyrimidin-4-yl-1-[2-(2,2,2-trifluoroethoxy)ethyl]-1H-pyrazolo[4,3-d]pyrimidin-7-amine trifluoroacetate]
2 | 0.32 | C[C@@H]1CN(c2nc(Nc3ccncn3)c3c(n2)c(CN2CCOCC2)nn3CCOCC(F)(F)F)CCN1 [Example 42, 5-[(3R)-3-Methylpiperazin-1-yl]-3-(morpholin-4-ylmethyl)-N-pyrimidin-4-yl-1-[2-(2,2,2-trifluoroethoxy)ethyl]-1H-pyrazolo[4,3-d]pyrimidin-7-amine trifluoroacetate]
3 | 0.21 | FC(F)(F)COCCn1nc(CN2CCOCC2)c2nc(N3CCNCC3)nc(Nc3ccncn3)c21 [Example 43, 3-(Morpholin-4-ylmethyl)-5-piperazin-1-yl-N-pyrimidin-4-yl-1-[2-(2,2,2-trifluoroethoxy)ethyl]-1H-Pyrazolo[4,3-d]pyrimidin-7-amine trifluoroacetate]
4 | 0.79 | CCN(C)c1nc(Nc2ccncn2)c2c(n1)c(CN1CCSCC1)nn2CCOCC(F)(F)F [Example 44, N^5-Ethyl-N^5-methyl-N^7-pyrimidin-4-yl-3-(thiomorpholin-4-ylmethyl)-1-[2-(2,2,2-trifluoroethoxy)ethy]-1H-pyrazolo[4,3-d]pyrimidine-5,7-diamine trifluoroacetate]
5 | 1.25 | C[C@@H]1CN(c2nc(Nc3ccncn3)c3c(n2)c(CN2CCCCC2)nn3CCOCC(F)(F)F)CCN1 [Example 45, 5-[(3R)-3-Methylpiperazin-1-yl]-3-(piperidin-1-ylmethyl)-N-pyrimidin-4-yl-1-[2-(2,2,2-trifluoroethoxy)ethyl]-1H-pyrazolo[4,3-d]pyrimidin-7-amine trifluoroacetate]
6 | 0.14 | C[C@@H]1CN(c2nc(Nc3ccncn3)c3c(n2)c(CN2CCSCC2)nn3CCOCC(F)(F)F)CCN1 [Example 46, 5-[(3R)-3-methylpiperazin-1-yl]-N-pyrimidin-4-yl-3-(thiomorpholin-4-ylmethyl)-1-[2-(2,2,2-trifluoroethoxy)ethyl]-1H-pyrazolo[4,3-d]pyrimidin-7-amine trifluoroacetate]
7 | 0.47 | C[C@@H]1CN(c2nc(Nc3ccncn3)c3c(n2)c(CN2CCN(C)CC2)nn3CCOCC(F)(F)F)CCN1 [Example 47, 5-[(3R)-3-Methylpiperazin-1-yl]-3-[(4-methylpiperazin-1-yl)methyl]-N-pyrimidin-4-yl-1-[2-(2,2,2-trifluoroethoxy)ethyl]-1H-pyrazolo[4,3-d]pyrimidin-7-amine trifluoroacetate]
8 | 7.39 | CCN(CC)Cc1nn(CCOCC(F)(F)F)c2c(Nc3ccncn3)nc(N(CC)CC)nc12 [Example 48, 3-[(Diethylamino)methyl]-N^5,N^5-diethyl-N^7-pyrimidin-4-yl-1-[2-(2,2,2-trifluoroethoxy)ethyl]-1H-pyrazolo[4,3-d]pyrimidine-5,7-diamine trifluoroacetate]
9 | 0.58 | C[C@@H]1CN(c2nc(Nc3ccncn3)c3c(n2)c(CN2CCS(=O)(=O)CC2)nn3CCOCC(F)(F)F)CCN1 [Example 49, 3-[(1,1-Dioxidothiomorpholin-4-yl)methyl]-5-[(3R)-3-methylpiperazin-1-yl]-N-pyrimidin-4-yl-1-[2-(2,2,2-trifluoroethoxy)ethyl]-1H-pyrazolo[4,3-d]pyrimidin-7-amine trifluoroacetate]
10 | 1.06 | FC(F)(F)CNCc1nn(CCOCC(F)(F)F)c2c(Nc3ccncn3)nc(N3CCNCC3)nc12 [Example 50, 1-(2-(2,2,2-trifluoroethoxy)ethyl)-3-((2,2,2-trifluoroethylamino)methyl)-5-(piperazin-1-yl)-N-(pyrimidin-4-yl)-1H-pyrazolo[4,3-d]pyrimidin-7-amine trifluoroacetate]
